According to article PMC8213057, “Targeting ALK2: An Open Science Approach to Developing Therapeutics for the Treatment of Diffuse Intrinsic Pontine Glioma” (Journal of Medicinal Chemistry, 2020):

Columns and labels:
AKT1 = AKT1 (Homo sapiens, UniProt P31749); conditions: 1 μM; Run 1, Run 2
CDK4/cyclin D1 = CDK4/cyclin D1 (Homo sapiens, UniProt P11802); conditions: 1 μM; Run 1, Run 2
KSR2 = molecular target: T1, KSR2 (Homo sapiens, UniProt Q6VAB6); conditions: 1 μM; Run 1, Run 2
T1 sequence (Q6VAB6 1-950): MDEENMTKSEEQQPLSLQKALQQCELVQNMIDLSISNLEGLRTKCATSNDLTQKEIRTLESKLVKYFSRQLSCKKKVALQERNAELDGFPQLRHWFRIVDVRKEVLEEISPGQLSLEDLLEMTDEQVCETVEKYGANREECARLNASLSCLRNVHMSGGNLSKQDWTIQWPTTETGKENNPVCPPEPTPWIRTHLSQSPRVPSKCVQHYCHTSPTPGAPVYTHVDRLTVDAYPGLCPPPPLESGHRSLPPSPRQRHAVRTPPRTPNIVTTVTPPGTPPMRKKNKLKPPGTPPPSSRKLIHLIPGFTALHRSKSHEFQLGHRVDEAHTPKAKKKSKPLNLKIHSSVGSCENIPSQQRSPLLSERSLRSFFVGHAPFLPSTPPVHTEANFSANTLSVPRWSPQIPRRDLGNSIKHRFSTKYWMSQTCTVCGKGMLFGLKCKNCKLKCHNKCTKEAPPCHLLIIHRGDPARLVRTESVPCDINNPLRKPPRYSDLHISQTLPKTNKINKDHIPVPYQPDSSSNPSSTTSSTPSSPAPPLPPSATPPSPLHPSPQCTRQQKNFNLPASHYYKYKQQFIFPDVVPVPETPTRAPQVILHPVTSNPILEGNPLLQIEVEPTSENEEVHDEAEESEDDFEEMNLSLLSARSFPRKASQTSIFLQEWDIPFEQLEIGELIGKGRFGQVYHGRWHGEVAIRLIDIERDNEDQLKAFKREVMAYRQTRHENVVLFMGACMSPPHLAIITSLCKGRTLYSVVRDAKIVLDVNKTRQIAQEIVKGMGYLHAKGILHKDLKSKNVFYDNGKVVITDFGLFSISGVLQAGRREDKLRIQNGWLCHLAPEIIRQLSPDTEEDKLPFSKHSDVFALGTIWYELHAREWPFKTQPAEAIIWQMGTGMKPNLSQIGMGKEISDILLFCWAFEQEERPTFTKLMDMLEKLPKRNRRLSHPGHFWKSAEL

PAK6 = PAK6 (Homo sapiens, UniProt Q9NQU5); conditions: 1 μM; Run 1, Run 2
PAK6, sequence (Q9NQU5 whole entry): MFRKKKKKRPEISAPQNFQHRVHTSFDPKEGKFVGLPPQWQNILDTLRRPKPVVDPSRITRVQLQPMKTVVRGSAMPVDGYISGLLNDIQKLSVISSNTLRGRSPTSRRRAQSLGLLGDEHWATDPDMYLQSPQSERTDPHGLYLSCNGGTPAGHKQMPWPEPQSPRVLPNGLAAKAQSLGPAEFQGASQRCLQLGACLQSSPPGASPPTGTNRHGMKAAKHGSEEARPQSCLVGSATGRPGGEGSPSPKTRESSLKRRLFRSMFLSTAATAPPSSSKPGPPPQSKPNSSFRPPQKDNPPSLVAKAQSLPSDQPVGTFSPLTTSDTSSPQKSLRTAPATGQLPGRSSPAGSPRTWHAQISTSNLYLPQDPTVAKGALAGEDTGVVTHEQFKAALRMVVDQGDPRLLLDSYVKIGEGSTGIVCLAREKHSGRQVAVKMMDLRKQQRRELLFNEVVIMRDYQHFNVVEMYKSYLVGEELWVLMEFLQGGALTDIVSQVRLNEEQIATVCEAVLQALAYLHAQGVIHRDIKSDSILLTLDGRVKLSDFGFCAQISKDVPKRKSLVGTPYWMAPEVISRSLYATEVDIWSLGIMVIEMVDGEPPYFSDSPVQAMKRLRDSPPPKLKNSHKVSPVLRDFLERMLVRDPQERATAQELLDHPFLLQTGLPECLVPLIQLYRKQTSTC

TSSK2 = molecular target: T2, TSSK2 (Homo sapiens, UniProt Q96PF2); conditions: 1 μM; Run 1, Run 2
T2 sequence (Q96PF2 1-358): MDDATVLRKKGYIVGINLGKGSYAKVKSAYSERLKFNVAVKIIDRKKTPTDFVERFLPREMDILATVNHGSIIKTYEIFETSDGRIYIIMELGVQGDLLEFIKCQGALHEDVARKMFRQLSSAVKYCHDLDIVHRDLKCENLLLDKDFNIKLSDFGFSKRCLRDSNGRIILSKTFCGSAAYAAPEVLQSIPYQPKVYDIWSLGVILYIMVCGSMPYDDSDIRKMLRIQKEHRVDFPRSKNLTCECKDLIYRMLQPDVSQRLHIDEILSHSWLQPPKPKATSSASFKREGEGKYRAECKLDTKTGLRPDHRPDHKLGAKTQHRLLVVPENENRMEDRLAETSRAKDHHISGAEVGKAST

CDK6/cyclin D1 = CDK6/cyclin D1 (Homo sapiens, UniProt Q00534); test: biochemical; conditions: read-out: % enzyme activity, 1 μM; Run 1, Run 2
CDK6/cyclin D1, sequence (Q00534 whole entry): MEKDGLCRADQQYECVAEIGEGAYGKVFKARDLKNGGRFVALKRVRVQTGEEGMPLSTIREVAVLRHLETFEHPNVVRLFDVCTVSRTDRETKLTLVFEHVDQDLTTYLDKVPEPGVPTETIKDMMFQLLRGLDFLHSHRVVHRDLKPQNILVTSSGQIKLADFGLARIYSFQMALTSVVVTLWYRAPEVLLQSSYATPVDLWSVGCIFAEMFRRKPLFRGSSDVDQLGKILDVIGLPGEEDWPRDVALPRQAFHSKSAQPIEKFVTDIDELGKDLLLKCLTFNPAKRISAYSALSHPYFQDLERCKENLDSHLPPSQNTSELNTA
CDK6/cyclin D1, sequence (P24385 whole entry partner): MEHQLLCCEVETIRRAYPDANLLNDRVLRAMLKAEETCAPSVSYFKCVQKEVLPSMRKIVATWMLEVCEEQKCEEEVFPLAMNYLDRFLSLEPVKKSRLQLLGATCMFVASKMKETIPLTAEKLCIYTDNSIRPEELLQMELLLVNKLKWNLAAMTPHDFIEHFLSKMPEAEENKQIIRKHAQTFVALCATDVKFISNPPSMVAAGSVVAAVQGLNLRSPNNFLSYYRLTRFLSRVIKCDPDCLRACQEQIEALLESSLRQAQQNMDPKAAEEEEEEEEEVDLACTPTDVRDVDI

JAK1 = JAK1 (Homo sapiens, UniProt P23458); test: biochemical; conditions: read-out: % enzyme activity, 1 μM; Run 1, Run 2
JAK1, sequence (P23458 whole entry): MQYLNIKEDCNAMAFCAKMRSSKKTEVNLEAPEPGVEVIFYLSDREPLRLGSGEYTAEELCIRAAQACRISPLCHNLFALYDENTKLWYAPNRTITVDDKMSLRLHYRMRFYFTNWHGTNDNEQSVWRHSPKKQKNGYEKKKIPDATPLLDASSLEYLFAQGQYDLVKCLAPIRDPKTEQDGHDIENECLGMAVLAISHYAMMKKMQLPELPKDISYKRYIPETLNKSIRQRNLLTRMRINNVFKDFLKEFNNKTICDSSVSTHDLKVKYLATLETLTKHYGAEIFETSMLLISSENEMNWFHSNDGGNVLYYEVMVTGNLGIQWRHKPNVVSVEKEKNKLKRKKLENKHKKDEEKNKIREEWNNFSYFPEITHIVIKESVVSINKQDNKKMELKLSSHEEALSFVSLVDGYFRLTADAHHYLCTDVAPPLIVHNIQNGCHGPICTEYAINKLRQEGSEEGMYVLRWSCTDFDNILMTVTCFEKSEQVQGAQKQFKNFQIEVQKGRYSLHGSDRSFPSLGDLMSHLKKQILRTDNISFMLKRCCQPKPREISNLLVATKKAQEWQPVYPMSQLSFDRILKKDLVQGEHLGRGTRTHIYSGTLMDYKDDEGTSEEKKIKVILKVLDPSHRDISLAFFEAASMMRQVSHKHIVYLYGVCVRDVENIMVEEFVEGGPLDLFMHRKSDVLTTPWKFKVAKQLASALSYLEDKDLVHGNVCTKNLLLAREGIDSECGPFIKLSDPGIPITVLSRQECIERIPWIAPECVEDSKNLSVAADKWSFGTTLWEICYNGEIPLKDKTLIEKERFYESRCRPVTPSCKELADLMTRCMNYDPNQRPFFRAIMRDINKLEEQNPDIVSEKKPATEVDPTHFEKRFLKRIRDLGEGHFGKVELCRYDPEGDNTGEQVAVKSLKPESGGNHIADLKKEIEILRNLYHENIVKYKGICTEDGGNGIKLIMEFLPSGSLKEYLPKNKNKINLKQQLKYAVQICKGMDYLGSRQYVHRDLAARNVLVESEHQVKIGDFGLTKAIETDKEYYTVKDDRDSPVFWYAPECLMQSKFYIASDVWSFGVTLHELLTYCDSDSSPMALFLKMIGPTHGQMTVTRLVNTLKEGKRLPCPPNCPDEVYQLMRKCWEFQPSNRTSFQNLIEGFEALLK

LATS1 = molecular target: T3, LATS1 (Homo sapiens, UniProt O95835); test: biochemical; conditions: read-out: % enzyme activity, 1 μM; Run 1, Run 2
T3 sequence (O95835 1-1130): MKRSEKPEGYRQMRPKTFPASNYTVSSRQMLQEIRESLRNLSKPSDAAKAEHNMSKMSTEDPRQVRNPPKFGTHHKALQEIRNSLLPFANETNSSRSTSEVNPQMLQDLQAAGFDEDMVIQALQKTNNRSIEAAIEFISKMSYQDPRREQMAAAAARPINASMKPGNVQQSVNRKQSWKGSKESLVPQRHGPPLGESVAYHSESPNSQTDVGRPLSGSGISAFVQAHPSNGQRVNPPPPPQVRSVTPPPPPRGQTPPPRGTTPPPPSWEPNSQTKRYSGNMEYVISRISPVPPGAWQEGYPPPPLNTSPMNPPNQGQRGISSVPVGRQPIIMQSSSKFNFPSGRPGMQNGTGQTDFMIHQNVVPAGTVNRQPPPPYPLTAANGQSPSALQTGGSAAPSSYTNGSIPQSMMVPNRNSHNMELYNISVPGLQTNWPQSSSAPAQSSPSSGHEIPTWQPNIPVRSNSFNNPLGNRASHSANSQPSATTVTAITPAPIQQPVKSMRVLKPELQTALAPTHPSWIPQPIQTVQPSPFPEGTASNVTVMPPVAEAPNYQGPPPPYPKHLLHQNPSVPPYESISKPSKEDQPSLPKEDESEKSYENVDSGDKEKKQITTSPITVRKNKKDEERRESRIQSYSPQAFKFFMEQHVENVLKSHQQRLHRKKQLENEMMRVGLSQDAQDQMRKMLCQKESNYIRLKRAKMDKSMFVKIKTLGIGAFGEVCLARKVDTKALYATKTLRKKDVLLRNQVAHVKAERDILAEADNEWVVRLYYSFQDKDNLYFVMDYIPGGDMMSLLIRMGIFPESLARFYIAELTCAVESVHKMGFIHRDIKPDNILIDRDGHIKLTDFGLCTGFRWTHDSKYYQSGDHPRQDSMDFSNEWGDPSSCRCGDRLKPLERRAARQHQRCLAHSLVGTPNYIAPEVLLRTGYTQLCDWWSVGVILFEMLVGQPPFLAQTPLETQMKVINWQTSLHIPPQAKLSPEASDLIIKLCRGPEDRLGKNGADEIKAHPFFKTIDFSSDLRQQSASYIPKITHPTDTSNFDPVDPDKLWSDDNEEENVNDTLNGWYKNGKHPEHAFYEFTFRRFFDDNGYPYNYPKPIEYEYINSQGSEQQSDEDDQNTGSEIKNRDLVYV

CDK4/cyclin D1, sequence (P11802 whole entry): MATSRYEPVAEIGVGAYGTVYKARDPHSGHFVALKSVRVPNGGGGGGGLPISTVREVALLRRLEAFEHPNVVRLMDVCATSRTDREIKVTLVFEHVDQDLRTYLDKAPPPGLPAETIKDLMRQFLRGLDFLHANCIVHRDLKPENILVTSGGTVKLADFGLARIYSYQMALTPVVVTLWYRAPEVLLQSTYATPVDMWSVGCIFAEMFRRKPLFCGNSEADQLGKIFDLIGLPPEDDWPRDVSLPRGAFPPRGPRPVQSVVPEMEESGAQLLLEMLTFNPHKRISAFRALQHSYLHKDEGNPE
CDK4/cyclin D1, sequence (P24385 whole entry partner): as the sequence (P24385 whole entry partner) above
AKT1, sequence (P31749 whole entry): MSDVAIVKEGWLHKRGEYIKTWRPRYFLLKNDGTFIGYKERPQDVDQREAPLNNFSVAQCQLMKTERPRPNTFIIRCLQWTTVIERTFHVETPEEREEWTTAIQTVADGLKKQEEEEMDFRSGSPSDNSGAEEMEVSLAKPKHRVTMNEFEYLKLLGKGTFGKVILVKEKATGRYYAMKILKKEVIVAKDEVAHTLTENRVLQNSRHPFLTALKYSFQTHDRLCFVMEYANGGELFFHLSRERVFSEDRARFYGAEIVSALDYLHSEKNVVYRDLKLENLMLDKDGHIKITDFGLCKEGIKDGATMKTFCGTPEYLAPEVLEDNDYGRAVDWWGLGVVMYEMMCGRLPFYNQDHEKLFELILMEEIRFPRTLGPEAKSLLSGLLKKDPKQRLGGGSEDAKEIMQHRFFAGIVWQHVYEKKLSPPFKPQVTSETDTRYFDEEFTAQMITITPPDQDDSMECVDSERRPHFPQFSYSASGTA

SMILES | % enzyme activity (AKT1) | % enzyme activity (CDK4/cyclin D1) | % enzyme activity (KSR2) | % enzyme activity (PAK6) | % enzyme activity (TSSK2) | remaining activity at 1 µM (CDK6/cyclin D1) | remaining activity at 1 µM (JAK1) | remaining activity at 1 µM (LATS1)
COc1cc(-c2cncc(-c3ccc(N4CCN(C)CC4)cc3)c2C)cc(F)c1C(N)=O [Compound 26a, 2-Fluoro-6-methoxy-4-(4-methyl-5-(4-(4-methylpiperazin-1-yl)phenyl)pyridin-3-yl)benzamide] | 102.39% | 98.46% | 93.25% | 97.22% | 98.77% | 100% | 102% | 97.4%
COc1cc(-c2cncc(-c3ccc(N4C[C@@H](C)N(C)[C@@H](C)C4)cc3)c2C)cc(F)c1C(N)=O [Compound 26c, 2-Fluoro-6-methoxy-4-(4-methyl-5-(4-((3R,5S)-3,4,5-trimethylpiperazin-1-yl)phenyl)pyridin-3-yl)benzamide] | 104.50% | 100.29% | 97.71% | 95.67% | 99.71% | 95.9% | 101% | 102%
